{
  "source": "patent US7351875B2",
  "about": "“FcγRIIa transgenic animal model for autoimmune disease” (Trillium Therapeutics, Inc., priority 2002, dated 2008)",
  "key": {"[1]": {"test_system": "FcγRIIa transgenic mice with CIA", "test": "Collagen-induced arthritis (CIA) in FcγRIIa transgenic mice, arthritis index", "type": "in vivo, mouse", "details": "FIG. 14", "excerpt": "In transgenic mouse models of the present invention the following mice strains were used DBA/1 (H-2^q) males at 8-12 weeks old, C57BL/6 (H-2^b) and (C57BL/6×SJ (H-2^b/s) males or females at 8-15 weeks old, and transgenic mice expressing the FcγRIIa human transgene on platelets, neutrophils and macrophages at physiological levels, (as described in McKenzie et al. 1999). Transgenic males or females at 12-15 weeks old were used in collagen-induced arthritis (CIA) experiments, and >25 weeks old for the spontaneous autoimmune disease studies. All mice were bred and kept in clean conditions and were fed a standard diet and water ad libitum. The mouse is characterised in the published paper by McKenzie et al. 1999, listed in references.\nComplete Freund's Adjuvant (CFA) was prepared by mixing 100 mg heat-killed M tuberculosis H37 Ra (Difco Laboratories, Detroit, Mich.) ground in 20 ml Incomplete Freund's Adjuvant (Difco Laboratories, Detroit, Mich.). […]\nMice were examined 2-3 times per week from day 14 onwards. […] The score of each mouse was calculated for the four limbs (maximum total score of 12 for each mouse) (Campbell et al. 1997). […]\nThe score for each mouse was calculated by adding the scores of the four limbs (maximum score of 12 for each mouse) (Campbell et al. 1997). […]"}, "[2]": {"test_system": "non transgenic DBA/1 mice with CIA", "details": "Neurath, Hildner et al. 1999; cited from earlier work"}},
  "data": [
    {"smiles": "CN(Cc1cnc2nc(N)nc(N)c2n1)c1ccc(C(=O)N[C@@H](CCC(=O)O)C(=O)O)cc1", "note": "[methotrexate]", "values": [
      {"measurement": "delay of CIA", "setting": "[1]; 1 mg/kg for 14 days from second collagen injection, day 21-35", "result": "effective in delaying CIA"},
      {"measurement": "disease after treatment ceased", "setting": "[1]; as immune function returned to normal after treatment ceased", "result": "increased in severity"},
      {"measurement": "delay of CIA in DBA/1 mice", "setting": "[2]", "result": "effective in delaying CIA"}
    ]}
  ]
}
